The IC50 is the concentration needed to halve the response being measured.

The results in this text go back to patent publication US20250332173A1, “COMPOUNDS AND METHODS FOR MODULATING NUCLEIC ACID SPLICING” (REMIX THERAPEUTICS INC., priority 2021, published 2025).

The test system of the first assay is Target C. As to the kind of experiment: HiBiT protein abundance assay, Target C (Promega Nano-Glo HiBiT Lytic Detection System, knock-in K562 cell line). In kind it is cell-based, human. The settings on record: HiBiT K562 cell line, 24 hours, top dose 10 μM; read-out: Effect on protein abundance, Target C (IC50 category). The procedure, abridged: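 Knock-in K562 cells carrying HiBiT-tagged Target C, 10,000 per well, treated 24 h at 37 °C with 10-point threefold dilutions (top 10 μM final, ≤0.25% DMSO). Lytic HiBiT luminescence read; response normalised to unmodified K562 and DMSO controls, four-parameter fit interpolated at 50% for IC50.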
(In general: With HiBiT, luminescence reflects the tagged protein that the partner subunit can reach.)
As for `Cc1cn2nc(-c3ccc4c(=O)n([C@@H]5CCNC6(CC6)C5)cnc4c3)cc(C)c2n1` [Compound 444], the half-inhibitory concentration (IC50) lay within 100 to 1000 nM.

The assay is the same for the next values; noted with them: Homo sapiens, K562, 24 h, HiBiT K562 cell line, 24 hours, top dose 10 μM; read-out: Effect on protein abundance, Target C (IC50 category).
In the case of `Cc1cn2nc(-c3cc(F)c4c(=O)n(C5CCNCC5)cnc4c3)cc(C)c2n1` [Compound 243], the IC50 is < 100 nM.
For the molecule `Cc1cn2cc(-c3ccc4c(=O)n(C5CCNCC5)cnc4c3)c(C)cc2n1` [Compound 244], the IC50 is > 10000 nM.
As to `Cc1nc2c(F)cc(-c3ccc4c(=O)n(C5CCNCC5)cnc4c3)cc2o1` [Compound 245], the IC50 was in the range of 100 to 1000 nM.
In the case of `Cc1cn2cc(-c3ccc4c(=O)n(C5CCN(C)CC5)cnc4c3)c(C)cc2n1` [Compound 246], the IC50 fell in the range of 1000 to 10000 nM.
Regarding `Cc1cn2cc(-c3ccc4c(c3)CCN(C3CCNCC3)C4=O)cc(F)c2n1` [Compound 247], the 50% inhibitory concentration (IC50) was in the range of 1000 to 10000 nM.
Same read-out and setting: in the case of `Cc1cn2cc(-c3ccc4c(=O)n(C5CCNCC5)ncc4c3)cc(F)c2n1` [Compound 248] it was 100 to 1000 nM.
Take `Cn1cc2cc(-c3ccc4c(=O)n(C5CCNCC5)ncc4c3)cc(F)c2n1` [Compound 249]: the IC50 lay in the range of 1000 to 10000 nM.
Consider `Cc1nc2c(F)cc(-c3ccc4c(=O)n(C5CCNCC5)ncc4c3)cc2o1` [Compound 250], for which the IC50 was 100 to 1000 nM.
Same read-out and setting: the value for `Cc1cc(-c2ccc3c(=O)n(C4CCNCC4)ncc3c2)cc2cn(C)nc12` [Compound 251] was 100 to 1000 nM.
Same read-out and setting: the value for `Cc1cn2cc(-c3ccc4c(c3)CCN(C3CCNCC3)C4=O)cc(C(F)(F)F)c2n1` [Compound 252] was > 10000 nM; that for `Cc1nc2c(F)cc(-c3ccc4c(=O)n(C5CCNCC5)ncc4c3)cc2s1` [Compound 253] was 1000 to 10000 nM; that for `Cc1cn2cc(-c3ccc4c(=O)n(C5CCNCC5)ncc4c3)c(C)cc2n1` [Compound 254] was 1000 to 10000 nM.
As for `Cc1cn2cc(-c3ccc4c(=O)n(C5CCNCC5)ncc4c3)ncc2n1` [Compound 255], the concentration for half-maximal inhibition (IC50) was > 10000 nM.
`Cc1cn2cc(-c3ccc4c(=O)n(C5CCNCC5)ncc4c3)cc(Cl)c2n1` [Compound 256]: the IC50 fell in the range of 100 to 1000 nM.
The same measure, in the same setting: in the case of `Cc1cn2cc(-c3ccc4c(=O)n(C5CCNCC5)ncc4c3)cc(C)c2n1` [Compound 257] it was 100 to 1000 nM; in that of `Cc1cn2nc(-c3ccc4c(=O)n(C5CCNCC5)ncc4c3)nc2c(C)n1` [Compound 259], 100 to 1000 nM.
In the case of `Cc1cn2nc(-c3ccc4c(=O)n(C5CCNCC5)ncc4c3)cc2c(C)n1` [Compound 260], the IC50 lay within 1000 to 10000 nM.
Consider `O=c1c2ccc(-c3cn[nH]c3)cc2cnn1C1CCNCC1` [Compound 261], for which the IC50 is > 10000 nM.
Same read-out and setting: the value for `Cc1cn2cc(-c3ccc4c(=O)n(C5CCNCC5)ncc4c3)cc(C(F)(F)F)c2n1` [Compound 262] was 1000 to 10000 nM.
On the same count and under the same terms, in the case of `Cn1cc2ccc(-c3ccc4c(=O)n(C5CCNCC5)ncc4c3)cc2n1` [Compound 263] it was 1000 to 10000 nM; in that of `Cc1cn2nc(-c3ccc4c(=O)n(C5CCNC5)ncc4c3)cc(C)c2n1` (centres unmarked) [Compound 264], > 10000 nM.
Consider `Cc1cn2nc(-c3ccc4c(=O)n(C5CCN(C)CC5)ncc4c3)cc(C)c2n1` [Compound 265], for which the IC50 fell in the range of 100 to 1000 nM.
